Values of other authors as cited in patent publication US20220175718A1, “TRANSDERMAL PHARMACEUTICAL FORMULATIONS FOR THE TREATMENT OF CANCER” (PIKE THERAPEUTICS, INC., priority 2020, published 2022).

Legend:
CB1 = CB1 (Homo sapiens, UniProt P21554)
CB2 = CB2 (Homo sapiens, UniProt P34972); conditions: for selectivity for CB2 over CB1: given as ×, fold or times
CB2, sequence (P34972 whole entry, species assumed): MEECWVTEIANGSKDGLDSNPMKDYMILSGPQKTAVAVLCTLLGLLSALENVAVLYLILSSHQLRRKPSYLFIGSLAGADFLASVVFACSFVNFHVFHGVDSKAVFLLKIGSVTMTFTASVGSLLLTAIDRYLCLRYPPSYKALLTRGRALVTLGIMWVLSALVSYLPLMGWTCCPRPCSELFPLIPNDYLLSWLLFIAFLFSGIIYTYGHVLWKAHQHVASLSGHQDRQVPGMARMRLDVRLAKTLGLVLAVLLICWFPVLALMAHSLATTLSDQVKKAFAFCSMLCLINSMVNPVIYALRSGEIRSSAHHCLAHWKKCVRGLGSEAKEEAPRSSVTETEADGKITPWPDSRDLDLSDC

CB1, sequence (P21554 whole entry, species assumed): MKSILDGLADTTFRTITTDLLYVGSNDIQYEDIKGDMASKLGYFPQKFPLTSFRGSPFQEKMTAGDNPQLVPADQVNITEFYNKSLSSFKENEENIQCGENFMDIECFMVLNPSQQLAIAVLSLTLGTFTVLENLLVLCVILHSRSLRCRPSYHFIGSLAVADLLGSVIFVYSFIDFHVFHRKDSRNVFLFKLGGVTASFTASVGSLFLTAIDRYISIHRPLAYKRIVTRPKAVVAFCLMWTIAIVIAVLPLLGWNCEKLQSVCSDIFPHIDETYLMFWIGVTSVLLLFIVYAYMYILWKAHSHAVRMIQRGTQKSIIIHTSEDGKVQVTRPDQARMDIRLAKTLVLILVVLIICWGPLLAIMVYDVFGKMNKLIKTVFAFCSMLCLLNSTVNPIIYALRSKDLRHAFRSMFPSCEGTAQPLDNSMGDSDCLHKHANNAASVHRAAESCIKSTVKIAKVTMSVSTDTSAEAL

Q: Which results are given for `CCCCCn1cc(C(=O)c2cccc3cccc(Br)c23)c2ccccc21` [JWH-424]?
A: Ki (CB1): 20.9 nM; Ki (CB2): 5.44 nM

Q: Which “selectivity for CB2 over CB1” value (CB2) does the source give for `CCCCCCC(C)(C)c1cc(OC)c2c(c1)OC(C)(C)C1CCC(O)CC21` (stereo not drawn) [JWH-350, 11-nor-1-methoxy-3-(1′,1′-dimethylheptyl)-9α-hydroxyhexahydrocannabinol] here?
A: Its value is 33.

Q: Which Ki (CB1) does the source give for `CCCCCn1cc(C(=O)c2ccc(Cl)c3ccccc23)c2ccccc21` [JWH-398] here?
A: The Ki was 2.3 nM.

Q: And the Ki (CB2)?
A: Its Ki is 2.8 nM.

Q: Which “selectivity for CB2 over CB1” value (CB2) does the source give for `CCCCCCC(C)(C)c1cc(O)c2c(c1)oc(=O)c1ccc(OC)cc12` [AM-1710] here?
A: Its value is 54.

Q: For `CCCn1cc(C(=O)c2ccc(C)c3ccccc23)c2ccccc21` [JWH-120], which “selectivity for CB2 over CB1” value (CB2) is on record?
A: The value was 173.

Q: For `CCCn1c(C)c(C(=O)c2ccc(C)c3ccccc23)c2ccccc21` [JWH-148], which “selectivity for CB2 over CB1” value (CB2) is on record?
A: The value was “more than 8”.
